Results published in article PMC10361251, “Absorption, tissue distribution, and excretion of glycycoumarin, a major bioactive coumarin from Chinese licorice (Glycyrrhiza uralensis Fisch)” (Frontiers in Pharmacology, 2023).
Where two headings read alike, the source gives them in different places. Values belong to the molecule of their own block, whether it stands above or below them.

Columns and labels:
[1] = set-up: method as in Wang et al., 2015; conditions: ref Wang et al., 2015; cited from earlier work
CYP1A1 = test system: CYP1A1; set-up: method as in Kim et al., 2016; conditions: human liver microsomes; ref Kim et al., 2016; cited from earlier work
CYP2C9 = conditions: human liver microsomes, cited from earlier work
CYP2B6 = test system: CYP2B6; set-up: method as in Li et al., 2017; Kuang et al., 2021; conditions: human liver microsomes; ref Li et al., 2017; Kuang et al., 2021; cited from earlier work
[2] = Urinary excretion of free and total GCM after i.v. administration; type: in vivo, rats; conditions: Sprague-Dawley, rat, urine, iv, 10 mg/kg, free GCM, i.v. 10 mg/kg
Method: Six rats were individually placed in metabolic cages and administered 10 mg/kg GCM by i. v. injection. Urine samples were collected over 24 h after administration in a urine reservoir containing 2 mL 0.1% HCl to avoid GCM degradation. Each urine reservoir was rinsed with 5 mL normal saline after collection. Every urine sample was diluted to 20 mL with normal saline and then stored at −40°C until assayed.
(§1) Two aliquots of 50 μL prepared bile or urine samples were spiked with or without β-glucuronidase to determine the total or free GCM concentrations, as described above. The mixtures were incubated at 37°C for 40 min, and the mixtures were then spiked with 120 μL of ice-cold methanol containing IS to stop incubation. A 10 μL supernatant of each sample was used for the analysis.
(§2) An LC-MS/MS system comprising an Agilent 1260 HPLC system (Palo Alto, CA, United States) and an Applied Biosystems 4500 Q-Trap mass spectrometer equipped with an electrospray ionization source (Foster City, CA, United States) was used. Chromatographic separation was performed on a C18 column (100 × 4.6 mm, 3 μm, Thermo Fisher Scientific, Waltham, MA, United States) maintained at 30°C. The mobile phases comprised 0.1% (v/v) formic acid in water (A) and acetonitrile (B) at a flow rate of 0.4 mL/min. […] The total run time was 4 min. For mass spectrometry detection, the positive ion mode was used and the ion spray voltage was set at 5,500 V. The operating conditions were as follows: ion source temperature, 450°C; curtain gas, 20 psi; collision gas, medium. Ion source gases 1 and 2 were both at 60 psi. The collision energies were 37 and 42 V, and the declustering potentials for GCM and IS were 110 and 136 V, respectively. Quantification was performed by multiple reaction monitoring (MRM) of molecular ions and product ions at m/z 369.3 and 284.7 for GCM and 337.0 and 280.9 for IS (Supplementary Figure S1). Analyst® software (Version 1.6.3) was used for data acquisition and peak integration.

[3] = set-up: method as in Li et al., 2017; Kuang et al., 2021; conditions: human liver microsomes; ref Li et al., 2017; Kuang et al., 2021; cited from earlier work
[4] = In vitro stability of GCM in pH buffers and gastrointestinal content solutions; type: in vitro ADME, rats; conditions: 4 h at 37°C, 0.8 μg/mL
Method: The gastrointestinal tract solutions were collected as described previously ([Kong et al., 2013]). Briefly, rats were fasted overnight and sacrificed; the entire stomach, small intestine, and colon of each rat were removed, and their contents were rapidly collected on ice. Each of the contents was suspended in buffer solutions at pH 1.2, 6.8, and 7.4. Following mixing and centrifugation, the protein content of the gastrointestinal tract solutions was assayed using the BCA protein assay kit from Solarbio (Beijing, China) and then adjusted to 12 mg/mL for further study.
The stability of GCM in the gastrointestinal tract, including chemical stability and enzymatic stability, was assessed using an in vitro method as described previously ([Kong et al., 2013]). Briefly, GCM was spiked into different pH (1.2, 6.8, and 7.4) buffers and gastrointestinal content solutions containing the GCM at a final concentration of 0.8 μg/mL. The solutions were then mixed and incubated at 37°C. Aliquots of 200 μL samples were collected at 0.5, 1, 2, and 4 h, and 200 μL ice-cold methanol containing 200 ng/mL IS was added to stop the incubation. After centrifugation, 10 μL of the supernatant was used for analysis. Each experiment was performed in triplicate.

[5] = Tissue distribution of GCM after intraperitoneal administration; type: in vivo; conditions: intraperitoneal 20 mg/kg, rats
Method: Twenty-five rats were randomly divided into five groups and administered 20 mg/kg GCM intraperitoneally. Samples of various tissues (heart, liver, spleen, lung, kidney, and brain) of a certain weight were collected from the rats at 0.5, 1, 2, 4, and 6 h following GCM administration. All tissues were then rinsed with normal saline to clean the blood, blotted with filter paper, and stored at −40°C until use. Blood samples were collected via the carotid artery at the specified time points, and plasma samples were harvested as described above.
Tissue samples were accurately weighed and homogenized in ice-cold saline (1:4, w/v) using a glass tissue homogenizer. Homogenized organs were centrifuged at 12,000 × g for 10 min to obtain clear supernatants; the supernatant was then transferred to a clean test tube kept at −40°C until assayed.
as §2

CYP2C19 = test system: CYP2C19; set-up: method as in Li et al., 2017; Kuang et al., 2021; conditions: human liver microsomes; ref Li et al., 2017; Kuang et al., 2021; cited from earlier work
CYP2D6 = test system: CYP2D6; set-up: method as in Qiao et al., 2014a; conditions: ref Qiao et al., 2014a; cited from earlier work
[6] = Biliary excretion of free and total GCM after i.v. administration; type: in vivo, rats; conditions: free GCM, i.v. 10 mg/kg; for dose excreted: Sprague-Dawley, rat, bile, iv, 10 mg/kg, read-out: Bile recovery
Method: Rats (n = 6) underwent bile fistula cannulation under anesthesia prior to bile sample collection. Bile samples from rats following i. v. GCM administration (10 mg/kg) were collected via cannula every 2 h over an 8 h collection period. Samples were collected from the catheter and delivered into acidified (0.1% HCl) centrifuge tubes. The rats were placed on thermostatic plates and kept under mild anesthesia throughout the experiment. The bile samples were diluted with saline and stored at −40°C until assayed.
as §1, §2

CYP2C8 = test system: CYP2C8; set-up: method as in Li et al., 2017; Kuang et al., 2021; conditions: human liver microsomes; ref Li et al., 2017; Kuang et al., 2021; cited from earlier work
[7] = Plasma pharmacokinetics of free and total GCM after i.v. or oral administration (LC-MS/MS, with or without β-glucuronidase hydrolysis); type: in vivo, Sprague-Dawley rats
From the text: Male Sprague-Dawley rats (200 ± 20 g) were obtained from SJA Laboratory Animal Co. Ltd. (Hunan, China). All animals were kept under standard conditions of light, humidity, and temperature, and were allowed free access to a standard diet and water. All animal experiments were approved by the Animal Ethics Committee of Bijie City First People’s Hospital (BY[2019]-02-198). On the day before GCM administration, rats were subjected to a minor surgical procedure. Briefly, a polyurethane catheter (0.59 mm ID, 0.94 mm OD; Skillsmodel Limited, Beijing, China) was cannulated into the right jugular vein while under anesthesia induced using an intraperitoneal dose of chloral hydrate at 350 mg/kg. After surgery, the rats were individually placed in metabolism cages to allow recovery for at least 24 h. The rats were fasted overnight with free access to water before GCM administration.
All GCM dosing drugs were freshly prepared at a concentration of 10 mg/mL prior to the experiments. Briefly, GCM was dissolved in normal saline containing 5% (v/v) Solutol HS 15. The animals were randomly divided into three groups. The i. v. administration group was treated intravenously with […] by quick injection through the cannulated catheter, and approximately 0.2 mL saline with 20 units of heparin was injected to flush the catheter and prevent blood coagulation. The oral administration group was treated with […] in a single gastric gavage dose, and the intraperitoneal injection group received 20 mg/kg GCM through intraperitoneal injection.
Approximately 0.3 mL blood samples were collected via the cannula and placed into heparinized micro centrifuge (Eppendorf) tubes at multiple time-points (0.08, 0.25, 0.50, 1, 2, 3, 4, 5, 6, 7, 8, 10, 12, and 24 h) after GCM administration. The samples were centrifuged at 3000 × g for 5 min at 4°C for plasma separation; a 0.1 mL aliquot of each separated plasma sample was harvested and stored at −40°C until assessed.
Free (parent drug) and/or total (including parent and glucuronidated metabolites) GCM concentrations in rat plasma, tissues, urine, and bile were quantitatively assayed using LC-MS/MS before and after hydrolytic treatment with β-glucuronidase.
Aliquots (100 μL) of plasma samples were divided into two equal fractions for determining the free and total GCM concentrations, as previously described ([Chang et al., 2012]). Briefly, two aliquots of 50 μL plasma were incubated at 37°C with or without β-glucuronidase at a concentration of 1,200 units for total and free GCM, respectively. After 40 min of incubation, 10 μL of IS (1,000 ng/mL) was added to the mixtures followed by extraction with ethyl acetate. After centrifugation, the clear ethyl acetate layer was transferred and concentrated using a freeze-dry concentration method at 4°C. Subsequently, the remaining material was reconstituted in 200 μL of 90% (v/v) methanol. A 10 μL aliquot of the supernatant was injected into the LC-MS/MS system for analysis.
as §2, with “Quantification was performed by multiple reaction monitoring (MRM) of molecular ions and product ions at m/z 369.3 and 284.7 for GCM and 337.0 and 280.9 for IS (Supplementary Figure S1). Analyst® software (Version 1.6.3) was used for data acquisition and peak integration.” left out

CYP1A2 = test system: CYP1A2; set-up: method as in Li et al., 2017; Kuang et al., 2021; conditions: human liver microsomes; ref Li et al., 2017; Kuang et al., 2021; cited from earlier work
[8] = male, Sprague-Dawley, iv, free GCM, i.v. 10 mg/kg, rat plasma

SMILES: COc1c(CC=C(C)C)c(O)cc2oc(=O)c3c4ccc(O)cc4oc3c12 [Glycyrol]
Absorption into the blood after oral administration [1]: not absorbed into the blood | CYP1A1 inhibition (CYP1A1): competitive inhibitory effects | CYP2C9 inhibition (CYP2C9; ref Kim et al., 2016): competitive inhibitory effects

dose excreted ([2]; 0–12 h, read-out: Urine recovery): 0.28 ± 0.25% | dose excreted ([2]; 0–24 h, read-out: Urinary recovery over 24 h): 0.39% | dose excreted ([2]; 12–24 h, read-out: Urine recovery): 0.11 ± 0.1% | Stability in colon content solutions [4]: unstable | Stability in small intestine content solutions [4]: unstable | Stability in stomach content solutions [4]: relatively stable | Stability in pH buffer solutions ([4]; pH 1.2, 6.8 and 7.4): relatively stable | Blood-brain barrier crossing [5]: cannot cross the blood-brain barrier | GCM in brain samples [5]: not detected | GCM levels in most tissues by 6 h after dosing ([5]; 6 h): undetectable levels | dose excreted ([6]; 0–2 h): 0.2 ± 0.12% | dose excreted ([6]; 2–4 h): 0.08 ± 0.06% | dose excreted ([6]; 4–6 h): 0.05 ± 0.04% | Parent form excreted from bile over 0–8 h ([6]; 0–8 h): < 1 % of the delivered dose | Parent GCM in plasma collected after 6 h ([7]; free GCM, i.v. 10 mg/kg): almost undetectable | CL/F ([7]; free GCM, i.v. 10 mg/kg, rats): 149 ± 33.3 mL/min/kg | Vd, λz/F ([7]; free GCM, i.v. 10 mg/kg, rats, in L/kg): 9.25 ± 3.13 | Free GCM in plasma after 2 h ([7]; free GCM, oral 20 mg/kg): almost undetectable | AUC0-∞ of conjugated (glucuronidated) GCM relative to free GCM ([7]; i.v. 10 mg/kg, rat plasma): approximately four-times higher | AUC(0-inf) [7, 8]: 1170 ± 283 ng·h/mL | AUC(0-t) [7, 8]: 1160 ± 284 ng·h/mL | C0 [7, 8]: 5690 ± 1360 ng/mL | half-life ([7]; male, Sprague-Dawley, iv, free GCM, i.v. 10 mg/kg, rat plasma, read-out: t1/2, λz (converted)): 42.6 ± 6.6 min
SMILES: COc1c(CC=C(C)C)c(O)cc2oc(=O)c(-c3ccc(O)cc3O)cc12 [GCM, Glycycoumarin]
CYP2B6 inhibition (CYP2B6): strongly inhibit | UGT1A19 inhibition [3]: strongly inhibit | Tissue concentration rank order [5]: liver, followed by that in the spleen, lung, heart, and kidney | CYP2C19 inhibition (CYP2C19): strongly inhibit | CYP2D6 activity inhibition (CYP2D6): significantly inhibits | CYP2C8 inhibition (CYP2C8): strongly inhibit | CYP2C9 inhibition (CYP2C9; ref Li et al., 2017, Kuang et al., 2021): strongly inhibit | CYP1A2 inhibition (CYP1A2): strongly inhibit
